Measured values as given in patent US8802597B2, “Herbicidal pyrimidines” (E I du Pont de Nemours and Company, priority 2003, dated 2014).
Where two headings read alike, the source gives them in different places.

Tests used:
Test in all cases: Test C pre/postemergence
Format in all cases: in vivo
[1] = tested on: cocklebur (Xanthium strumarium); details: Xanthium strumarium, pre-emergence, Preemergence, scale 0 to 100, read-out: Plant response rating, Cocklebur
Outline: (§1)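 Seeds sown and sprayed preemergence with test compound in non-phytotoxic solvent containing surfactant; postemergence sprays, same formulation, went onto plants 2 to 18 cm tall (1- to 4-leaf stage). Plants held in greenhouse 12 to 14 days, then visually rated against untreated controls on a 0–100 scale (0 no effect, 100 complete control).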

[2] = tested on: Surinam grass (Brachiaria decumbens); details: Urochloa decumbens; for pest or weed control at 125 g/ha: 125 g ai/ha; for pest or weed control at 31 g/ha: 31 g ai/ha; for pest or weed control at 62 g/ha: 62 g ai/ha; for pest or weed control at 250 g/ha: 250 g ai/ha
Outline: as §1

[3] = tested on: common (oilseed) sunflower (Helianthus annuus); details: Helianthus annuus, pre-emergence, Preemergence, read-out: Plant response rating, Sunflower
Outline: as §1

[4] = tested on: crabgrass (Digitaria sanguinalis); details: Digitaria sanguinalis; for pest or weed control at 31 g/ha: 31 g ai/ha; for pest or weed control at 62 g/ha: 62 g ai/ha; for pest or weed control at 125 g/ha: 125 g ai/ha; for pest or weed control at 250 g/ha: 250 g ai/ha
Outline: as §1

[5] = tested on: woolly cupgrass (Eriochloa villosa); details: Eriochloa villosa; for pest or weed control at 31 g/ha: 31 g ai/ha; for pest or weed control at 62 g/ha: 62 g ai/ha; for pest or weed control at 125 g/ha: 125 g ai/ha; for pest or weed control at 250 g/ha: 250 g ai/ha
Outline: as §1

[6] = tested on: giant foxtail (Setaria faberii); details: Setaria faberi; for pest or weed control at 125 g/ha: 125 g ai/ha; for pest or weed control at 31 g/ha: 31 g ai/ha; for pest or weed control at 62 g/ha: 62 g ai/ha; for pest or weed control at 250 g/ha: 250 g ai/ha
Outline: as §1

[7] = tested on: pigweed (Amaranthus retroflexus); details: Amaranthus retroflexus; for pest or weed control at 31 g/ha: 31 g ai/ha; for pest or weed control at 62 g/ha: 62 g ai/ha; for pest or weed control at 125 g/ha: 125 g ai/ha; for pest or weed control at 250 g/ha: 250 g ai/ha
Outline: as §1

[8] = post-emergence, Postemergence, scale 0 to 100 (0 no effect, 100 complete control), read-out: Surinam Grass plant response rating
[9] = pre-emergence, Preemergence, scale 0 to 100, 0 no effect, 100 complete control, read-out: Plant response rating, Surinam Grass
[10] = pre-emergence, Preemergence, scale 0 to 100, read-out: Plant response rating, Surinam Grass
[11] = post-emergence, Postemergence, scale 0 to 100 (0 no effect, 100 complete control), read-out: Crabgrass plant response rating
[12] = pre-emergence, Preemergence, scale 0 to 100, 0 no effect, 100 complete control, read-out: Plant response rating, Crabgrass
[13] = pre-emergence, Preemergence, scale 0 to 100, read-out: Plant response rating, Crabgrass
[14] = post-emergence, Postemergence, scale 0 to 100 (0 no effect, 100 complete control), read-out: Cupgrass, Woolly plant response rating
[15] = pre-emergence, Preemergence, scale 0 to 100, 0 no effect, 100 complete control, read-out: Plant response rating, Cupgrass, Woolly
[16] = pre-emergence, Preemergence, scale 0 to 100, read-out: Plant response rating, Cupgrass, Woolly
[17] = post-emergence, Postemergence, scale 0 to 100 (0 no effect, 100 complete control), read-out: Foxtail, Giant plant response rating
[18] = pre-emergence, Preemergence, scale 0 to 100, 0 no effect, 100 complete control, read-out: Plant response rating, Foxtail, Giant
[19] = pre-emergence, Preemergence, scale 0 to 100, read-out: Plant response rating, Foxtail, Giant
[20] = post-emergence, Postemergence, scale 0 to 100 (0 no effect, 100 complete control), read-out: Pigweed plant response rating
[21] = pre-emergence, Preemergence, scale 0 to 100, 0 no effect, 100 complete control, read-out: Plant response rating, Pigweed
[22] = pre-emergence, Preemergence, scale 0 to 100, read-out: Plant response rating, Pigweed

Question: COC(=O)c1nc(C2CC2)nc(N)c1Br [Compound 2, methyl 6-amino-5-bromo-2-cyclopropyl-4-pyrimidinecarboxylate] was tested. Which pest or weed control at 125 g/ha ([1]; 125 g ai/ha) did it give?
Answer: 80%

Question: What about the pest or weed control at 250 g/ha ([1]; 250 g ai/ha) of the same compound?
Answer: 100%

Question: And the pest or weed control at 125 g/ha [2, 8]?
Answer: 65%

Question: And the pest or weed control at 31 g/ha ([2]; post-emergence, Postemergence, read-out: Plant response rating (scale of 0 to 100), Surinam Grass)?
Answer: 0%

Question: And the pest or weed control at 62 g/ha [2, 8]?
Answer: 55%

Question: What about the pest or weed control at 250 g/ha ([2]; post-emergence, Postemergence, scale 0 to 100, read-out: Plant response rating, Surinam Grass) of the same compound?
Answer: 70%

Question: What about the pest or weed control at 31 g/ha [2, 9] of the same compound?
Answer: 0%

Question: What about the pest or weed control at 62 g/ha [2, 9] of the same compound?
Answer: 0%

Question: And the pest or weed control at 125 g/ha [2, 10]?
Answer: 0%

Question: And the pest or weed control at 250 g/ha [2, 10]?
Answer: 0%

Question: What about the pest or weed control at 31 g/ha ([3]; 31 g ai/ha, scale 0 to 100, 0 no effect, 100 complete control) of the same compound?
Answer: 20%

Question: And the pest or weed control at 62 g/ha ([3]; 62 g ai/ha, scale 0 to 100, 0 no effect, 100 complete control)?
Answer: 100%

Question: What about the pest or weed control at 125 g/ha ([3]; 125 g ai/ha, scale 0 to 100) of the same compound?
Answer: 100%

Question: What about the pest or weed control at 250 g/ha ([3]; 250 g ai/ha, scale 0 to 100) of the same compound?
Answer: 100%

Question: And the pest or weed control at 31 g/ha ([4]; post-emergence, Postemergence, read-out: Plant response rating (scale of 0 to 100), Crabgrass)?
Answer: 40%

Question: And the pest or weed control at 62 g/ha [4, 11]?
Answer: 55%

Question: What about the pest or weed control at 125 g/ha [4, 11] of the same compound?
Answer: 60%

Question: What about the pest or weed control at 250 g/ha ([4]; post-emergence, Postemergence, scale 0 to 100, read-out: Plant response rating, Crabgrass) of the same compound?
Answer: 70%

Question: And the pest or weed control at 31 g/ha [4, 12]?
Answer: 0%

Question: What about the pest or weed control at 62 g/ha [4, 12] of the same compound?
Answer: 0%

Question: And the pest or weed control at 125 g/ha [4, 13]?
Answer: 0%

Question: And the pest or weed control at 250 g/ha [4, 13]?
Answer: 50%

Question: And the pest or weed control at 31 g/ha ([5]; post-emergence, Postemergence, read-out: Plant response rating (scale of 0 to 100), Cupgrass, Woolly)?
Answer: 40%

Question: And the pest or weed control at 62 g/ha [5, 14]?
Answer: 60%

Question: What about the pest or weed control at 125 g/ha [5, 14] of the same compound?
Answer: 70%

Question: What about the pest or weed control at 250 g/ha ([5]; post-emergence, Postemergence, scale 0 to 100, read-out: Plant response rating, Cupgrass, Woolly) of the same compound?
Answer: 75%

Question: What about the pest or weed control at 31 g/ha [5, 15] of the same compound?
Answer: 0%

Question: What about the pest or weed control at 62 g/ha [5, 15] of the same compound?
Answer: 0%

Question: What about the pest or weed control at 125 g/ha [5, 16] of the same compound?
Answer: 0%

Question: What about the pest or weed control at 250 g/ha [5, 16] of the same compound?
Answer: 45%

Question: What about the pest or weed control at 125 g/ha [6, 17] of the same compound?
Answer: 65%

Question: And the pest or weed control at 31 g/ha ([6]; post-emergence, Postemergence, read-out: Plant response rating (scale of 0 to 100), Foxtail, Giant)?
Answer: 0%

Question: What about the pest or weed control at 62 g/ha [6, 17] of the same compound?
Answer: 35%

Question: What about the pest or weed control at 250 g/ha ([6]; post-emergence, Postemergence, scale 0 to 100, read-out: Plant response rating, Foxtail, Giant) of the same compound?
Answer: 70%

Question: And the pest or weed control at 31 g/ha [6, 18]?
Answer: 0%

Question: What about the pest or weed control at 62 g/ha [6, 18] of the same compound?
Answer: 0%

Question: What about the pest or weed control at 125 g/ha [6, 19] of the same compound?
Answer: 0%

Question: What about the pest or weed control at 250 g/ha [6, 19] of the same compound?
Answer: 30%

Question: What about the pest or weed control at 31 g/ha ([7]; post-emergence, Postemergence, read-out: Plant response rating (scale of 0 to 100), Pigweed) of the same compound?
Answer: 65%

Question: What about the pest or weed control at 62 g/ha [7, 20] of the same compound?
Answer: 80%

Question: And the pest or weed control at 125 g/ha [7, 20]?
Answer: 95%

Question: What about the pest or weed control at 250 g/ha ([7]; post-emergence, Postemergence, scale 0 to 100, read-out: Plant response rating, Pigweed) of the same compound?
Answer: 100%

Question: What about the pest or weed control at 31 g/ha [7, 21] of the same compound?
Answer: 90%

Question: What about the pest or weed control at 62 g/ha [7, 21] of the same compound?
Answer: 95%

Question: And the pest or weed control at 125 g/ha [7, 22]?
Answer: 95%

Question: What about the pest or weed control at 250 g/ha [7, 22] of the same compound?
Answer: 100%
